# Source: patent EP0550016A1, “Novel quinolone carboxylic acid derivatives and processes for preparing same” (KOREA RESEARCH INSTITUTE OF CHEMICAL TECHNOLOGY, priority 1991, dated 1993)
# Where two headings read alike, the source gives them in different places.
# Legend:
# [1] = tested on: Streptococcus pyogenes 308 A; experiment: In vitro anti-bacterial activity test (MIC, two-fold dilution method) against the standard strains; assay type: cell-based; settings: Table 1 strain 1: Streptococcus pyogenes 308 A
# [2] = tested on: Streptococcus pyogenes 77 A; experiment: as above; assay type: cell-based; settings: Table 1 strain 2: Streptococcus pyogenes 77 A; read-out: MIC
# [3] = tested on: Streptococcus faecium MD 8b; experiment: as above; assay type: cell-based; settings: Enterococcus faecium, MD8B; Table 1 strain 3: Streptococcus faecium MD 8b; read-out: MIC
# [4] = tested on: Staphylococcus aureus SG 511; experiment: as above; assay type: cell-based; settings: SG511; Table 1 strain 4: Staphylococcus aureus SG 511
# [5] = tested on: Staphylococcus aureus 285; experiment: as above; assay type: cell-based; settings: Table 1 strain 5: Staphylococcus aureus 285; read-out: MIC
# [6] = tested on: Staphylococcus aureus 503; experiment: as above; assay type: cell-based; settings: Table 1 strain 6: Staphylococcus aureus 503; read-out: MIC
# Escherichia coli DC 0 [7] = experiment: as above; assay type: cell-based; settings: DC0; Table 1 strain 7: Escherichia coli DC 0
# Escherichia coli DC 0 [8] = experiment: as above; assay type: cell-based; settings: DC0; Table 1 strain 8: Escherichia coli DC 0
# Escherichia coli DC 2 = experiment: as above; assay type: cell-based; settings: DC2
# Escherichia coli OTEM = experiment: as above; assay type: cell-based; settings: Table 1 strain 10: Escherichia coli OTEM
# Escherichia coli 1507 E = experiment: as above; assay type: cell-based; settings: Table 1 strain 11: Escherichia coli 1507 E
# [9] = tested on: Pseudomonas aeruginosa 9027; experiment: as above; assay type: cell-based; settings: Table 1 strain 12: Pseudomonas aeruginosa 9027
# [10] = tested on: Pseudomonas aeruginosa 1592 E; experiment: as above; assay type: cell-based; settings: Table 1 strain 13: Pseudomonas aeruginosa 1592 E
# [11] = tested on: Pseudomonas aeruginosa 1771; experiment: as above; assay type: cell-based; settings: Table 1 strain 14: Pseudomonas aeruginosa 1771
# [12] = tested on: Pseudomonas aeruginosa 1771 M; experiment: as above; assay type: cell-based; settings: Table 1 strain 15: Pseudomonas aeruginosa 1771 M
# Salmonella typhimurium = experiment: as above; assay type: cell-based; settings: Salmonella enterica; Table 1 strain 16: Salmonella typhimurium
# [13] = tested on: Klebsiella aerogenes 1082 E; experiment: as above; assay type: cell-based; settings: Table 1 strain 17: Klebsiella aerogenes 1082 E
# [14] = tested on: Klebsiella aerogenes 1522 E; experiment: as above; assay type: cell-based; settings: Table 1 strain 18: Klebsiella aerogenes 1522 E
# [15] = tested on: Enterobacter cloacae P 99; experiment: as above; assay type: cell-based; settings: P99; Table 1 strain 19: Enterobacter cloacae P 99
# [16] = tested on: Enterobacter cloacae 1321 E; experiment: as above; assay type: cell-based; settings: Table 1 strain 20: Enterobacter cloacae 1321 E
# Acute Toxicity Test = settings: mouse, in vivo, female ICR mice, day 14, read-out: Acute Toxicity(LD₅₀)
# Method: Test compounds were administered to female ICR mice weighing 20 to 25g and on day 14, LD₅₀ was calculated from the number of survived mice by the probit analysis.
# P. mirabilis = experiment: Preventive effect against the systemic infection; assay type: in vivo; settings: Proteus mirabilis, 168 h, NMRI mice, survival on day 7, read-out: ED₅₀
# Method: (§1) 10 fold of the pathogen which leads to 100% lethality were injected intraperitoneally to male and female NMRI mice weighing 18 to 20g. Immediately and after 4 hours, the dose of test compounds which was determined by two-fold serial dilution method was administered orally or subcutaneously; and on day 7, the effectiveness was evaluated in terms of ED₅₀ calculated from the number of survived mice by the probit analysis.
# S. aureus 17740 = experiment: Preventive effect against the systemic infection; assay type: in vivo; settings: Staphylococcus aureus, 168 h, NMRI mice, survival on day 7, read-out: ED₅₀
# Method: as §1
# [17] = Table 1 strain 9: Escherichia coli DC 2, read-out: MIC
Compound,MIC [1] [µg/mL],MIC [2] [µg/mL],MIC [3] [µg/mL],MIC [4] [µg/mL],MIC [5] [µg/mL],MIC [6] [µg/mL],MIC (Escherichia coli DC 0 [7]) [µg/mL],MIC (Escherichia coli DC 0 [8]) [µg/mL],MIC (Escherichia coli DC 2; [17]) [µg/mL],MIC (Escherichia coli OTEM) [µg/mL],MIC (Escherichia coli 1507 E) [µg/mL],MIC [9] [µg/mL],MIC [10] [µg/mL],MIC [11] [µg/mL],MIC [12] [µg/mL],MIC (Salmonella typhimurium) [µg/mL],MIC [13] [µg/mL],MIC [14] [µg/mL],MIC [15] [µg/mL],MIC [16] [µg/mL],other results
C[C@H]1COc2c(N3CCC4(CC4N)C3)c(F)cc3c(=O)c(C(=O)O)cn1c23 (stereo partly shown) [Example 13],0.391,0.195,0.195,0.098,0.098,0.049,0.025,0.391,0.098,0.049,0.098,1.56,1.56,1.56,0.391,0.049,0.004,0.098,0.049,0.049,"LD50 at 336 h (Acute Toxicity Test; ip, Intraperitoneal Injection): 620 mg/kg; LD50 at 336 h (Acute Toxicity Test; Oral Administration): 4000 mg/kg"
"NC1CC12CCN(c1c(F)cc3c(=O)c(C(=O)O)cn(C4CC4)c3c1F)C2 (stereo not shown) [Example 1, 7-(1-amino-5-azaspiro[2,4]heptane-5-yl)-1-cyclopropyl-6,8-difluoro-1,4-dihydro-4-oxoquinoline-3-carboxylic acid]",0.195,0.098,0.195,0.025,0.025,0.025,0.004,0.195,0.049,0.013,0.013,0.781,0.391,0.391,0.195,0.013,0.004,0.013,0.013,0.004,"ED50 (P. mirabilis; Oral Administration): 7.13 mg/kg; ED50 (P. mirabilis; sc, Subcutaneous Injection): 1.36 mg/kg; ED50 (S. aureus 17740; Oral Administration): 128 mg/kg; ED50 (S. aureus 17740; sc, Subcutaneous Injection): 16.8 mg/kg; LD50 (Acute Toxicity Test; ip, Intraperitoneal Injection): 605 mg/kg; LD50 (Acute Toxicity Test; Oral Administration): 3800 mg/kg"
"NC1CC12CCN(c1c(F)cc3c(=O)c(C(=O)O)cn(C4CC4)c3c1Cl)C2 (stereo not shown) [Example 3, 7-(1-amino-5-azaspiro[2,4]heptane-5-yl)-8-chloro-1-cyclopropyl-6-fluoro-1,4-dihydro-4-oxoquinoline-3-carboxylic acid]",0.098,0.025,0.391,0.025,0.007,0.004,< 0.002,0.195,0.025,0.007,0.025,0.781,0.781,0.781,0.195,0.004,< 0.002,0.004,0.004,< 0.002,"ED50 (P. mirabilis; Oral Administration): 2.58 mg/kg; ED50 (P. mirabilis; sc, Subcutaneous Injection): 0.63 mg/kg"
"CC(O)C(=O)O.NC1CC12CCN(c1c(F)cc3c(=O)c(C(=O)O)cn(C4CC4)c3c1F)C2 (stereo not shown) [Example 2, 7-(1-amino-5-azaspiro[2,4]heptane-5-yl)-1-cyclopropyl-6,8-difluoro-1,4-dihydro-4-oxoquinoline-3-carboxylic acid lactate]",0.195,0.098,0.098,0.025,0.025,0.025,0.004,0.195,,0.025,0.025,0.781,0.781,0.781,0.098,0.013,0.013,0.025,0.013,0.007,"MIC (Escherichia coli DC 2; Escherichia coli): 0.049 µg/mL; ED50 (S. aureus 17740; Oral Administration): 49.7 mg/kg; ED50 (S. aureus 17740; sc, Subcutaneous Injection): 97.6 mg/kg; LD50 (Acute Toxicity Test; ip, Intraperitoneal Injection): 580 mg/kg; LD50 (Acute Toxicity Test; Oral Administration): 3800 mg/kg"
